Values of other authors as cited in patent US20240307364A1, “GAS TRANSMISSION EMULSION FOR INTRAVENOUS ADMINISTRATION” (priority 2021, published 2024).
Read-outs that look alike come from different tables or passages of the source.

Key:
[1] = toxic or locally irritating properties of the detected impurity
[2] = 37° C.
[3] = measure of relative solubility of PFOC in lipids

Row | Compound | Toxicity, yes/no [1] | Grade of clearance rate (in vivo) | TcrH (temperature at which equal volumes of PFOC and hexane are mixed together) [3] [°C] | also measured
1 | CCOC(C)c1ccccc1 (single isomer, unassigned) [benzene, (1-ethoxyethyl)-] | yes | – | – | –
2 | FC(F)(F)C(F)(F)C(F)(F)C(F)(F)C(F)(F)C(F)(F)C(F)(F)C(F)(F)Br [Perfluorooctyl bromide (PFOB), Perfluorooctyl bromide] | – | Fast | −20 | P, vapor tension [2]: 10.5 mm Hg
3 | CN(C)C(=S)N(C)C [thiourea, tetramethyl-] | yes | – | – | –
4 | OCC(O)CO [glycerol] | no | – | – | –
5 | CC1C=CCC(C)(C)C1 (stereo not drawn) [cyclohexene, 3,5,5-trimethyl-] | yes | – | – | –
6 | FC(F)(F)N(C(F)(F)C(F)(F)C(F)(F)C(F)(F)F)C1(F)C(F)(F)C(F)(F)C(F)(C(F)(F)F)C(F)(F)C1(F)F (stereo not drawn) [perfluoromethylbutyl(4-methylcyclohexyl)amine] | no | – | – | –
7 | Cc1cc(Cc2cc(C)cc(C(C)(C)C)c2O)c(O)c(C(C)(C)C)c1 [phenol, 2,2′-methylenebis[6-(1,1-dimethylethyl)-4-methyl-] | yes | – | – | –
8 | CC(C)COC(=O)c1ccccc1C(=O)OCC(C)C [diisobutyl phthalate] | yes | – | – | –
9 | CC1=NN(c2ccccc2)C(=O)C1 [3H-pyrazol-3-one, 2,4-dihydro-5-methyl-2-phenyl-] | yes | – | – | –
10 | FC(F)(F)N1C(F)(F)C(F)(F)C(F)(C2(F)C(F)(F)C(F)(F)C(F)(F)C(F)(F)C2(F)F)C(F)(F)C1(F)F [Perfluoromethylcyclohexylpiperidine] | – | Slow | – | t1/2, elimination half-life (elimination from an organism): 90 days
11 | O-ethyl-methoxy-phenyl-oxime | yes | – | – | –
12 | OCc1ccco1 (single isomer, unassigned) [furfurol] | yes | – | – | –
13 | FC1(F)C(F)(F)C(F)(F)C2(F)C(F)(F)C(F)(F)C(F)(F)C(F)(F)C2(F)C1(F)F (stereo not drawn) [Perfluorodecalin (PFD), Perfluorodecalin] | – | Fast | 22 | P, vapor tension [2]: 12 mm Hg
14 | Fc1ccc2ccccc2c1 [naphthalene, 2-fluoro-] | yes | – | – | –
15 | FC1(F)C(F)(F)C(F)(F)C2(F)C(F)(F)C(F)(F)C(F)(F)C2(F)C1(F)F (stereo not drawn) [Perfluorobicyclo[4.3.0]nonane] | – | Fast | 13 | P, vapor tension [2]: 33 mm Hg; t1/2, elimination half-life (elimination from an organism): 4 days
16 | FC(F)(F)C(F)(F)C(F)(F)C(F)(F)N(C(F)(F)C(F)(F)C(F)(F)C(F)(F)F)C(F)(F)C(F)(F)C(F)(F)C(F)(F)F [Perfluorotributylamine (PFTBA), Perfluorotributylamine] | – | Slow | 61 | P, vapor tension [2]: 1 mm Hg; t1/2, elimination half-life (elimination from an organism): 400 to 900 days
17 | Cc1cc(O)n(Cc2ccccc2)c(=O)c1C#N [1-benzyl-6-hydroxy-4-methyl-2(1H)-oxo-3-pyridinecarbonitrile] | yes | – | – | –
18 | FC(F)(F)C(F)(F)C(F)(F)N1C(F)(F)C(F)(F)C(F)(F)C(F)(F)C1(F)C(F)(F)F (stereo not drawn) [Perfluoro-1-propyl-2 methylpiperidine] | – | Fast | 35 | P, vapor tension [2]: 19 mm Hg; t1/2, elimination half-life (elimination from an organism): 24 days
19 | CO/C(=N\O)c1ccccc1 [oxime-, methoxy-phenyl-] | yes | – | – | –
20 | Perfluorodimethyladamantane [Perfluorodimethyladamantane (PFDMA)] | – | Fast | 32 | t1/2, elimination half-life (in vivo): 10 to 20 days
21 | FC1(F)C(F)(F)C(F)(F)C(F)(F)C(F)(F)C1(F)F (single isomer, unassigned) [cyclohexane, dodecafluoro-] | yes | – | – | –
22 | COC(=O)c1ccccc1C(=O)OC [dimethyl phthalate] | no | – | – | –
23 | CCCCCO (single isomer, unassigned) [pentanol] | yes | – | – | –
24 | Perfluorodihexyl ether | – | Slow | 59 | P, vapor tension [2]: 2 mm Hg; t1/2, elimination half-life (elimination from an organism): 500 days
25 | FC(F)(F)C1(F)C(F)(F)C(F)(F)C(F)(F)C(F)(F)C1(F)F (single isomer, unassigned) [perfluoro(methylcyclohexane)] | no | – | – | –
26 | CCOC(=O)c1ccccc1 [benzoic acid ethyl ester] | yes | – | – | –
27 | FC(F)(F)C(F)(F)C(F)(F)N(C(F)(F)C(F)(F)C(F)(F)F)C(F)(F)C(F)(F)C(F)(F)F [Perfluorotripropylamine (PFTPA), Perfluorotripropylamine] | – | Slow | 43 | P, vapor tension [2]: 17 mm Hg; t1/2, elimination half-life (elimination from an organism): 65 days
28 | FC1(F)C(F)(F)C2(F)C(F)(F)C(F)(F)C(F)(F)C3(F)C(F)(F)C(F)(F)C(F)(C1(F)F)C23F (stereo not drawn) [Perfluorodecahydroacenaphthene] | – | Fast | 24 | P, vapor tension [2]: 2 mm Hg; t1/2, elimination half-life (elimination from an organism): 7 days
29 | c1ccc2ccccc2c1 [naphthalene] | yes | – | – | –
